Assay results as given in patent publication US8258114B2, “Modulation of glucose-6-phosphatase translocase expression” (Isis Pharmaceuticals, Inc., priority 2004, dated 2012).
Oligonucleotides are written 5' to 3', each unit as a sugar letter and its base; * is a phosphorothioate linkage, no mark a phosphodiester; rarer units and linkages stand in square brackets, end groups in braces. Plain capitals give the bases only. e = 2'-O-(2-methoxyethyl) (MOE); [5mC] = 5-methylcytosine; d = 2'-deoxy (DNA)

test system: human glucose-6-phosphatase translocase mRNA; test: Antisense inhibition of human glucose-6-phosphatase translocase mRNA in HepG2 cells (Table 11); type: cell-based; parameters: concentration or dose not given beside the values; conditions: LIPOFECTIN, mRNA by real-time PCR
Procedure: The human hepatoblastoma cell line HepG2 was obtained from the American Type Culture Collection (Manassas, Va.). HepG2 cells were routinely cultured in Eagle's MEM supplemented with 10% fetal bovine serum, 1 mM non-essential amino acids, and 1 mM sodium pyruvate (Invitrogen Life Technologies, Carlsbad, Calif.). Cells were routinely passaged by trypsinization and dilution when they reached approximately 90% confluence. Multiwell culture plates are prepared for cell culture by coating with a 1:100 dilution of type 1 rat tail collagen (BD Biosciences, Bedford, Mass.) in phosphate-buffered saline. The collagen-containing plates were incubated at 37° C. for approximately 1 hour, after which the collagen was removed and the wells were washed twice with phosphate-buffered saline. Cells were seeded into 96-well plates (Falcon-Primaria #353872, BD Biosciences, Bedford, Mass.) at a density of approximately 8,000 cells/well for use in oligomeric compound transfection experiments.
When cells reached 65-75% confluency, they were treated with oligonucleotide. Oligonucleotide was mixed with LIPOFECTIN™ Invitrogen Life Technologies, Carlsbad, Calif.) in Opti-MEM™-1 reduced serum medium (Invitrogen Life Technologies, Carlsbad, Calif.) to achieve the desired concentration of oligonucleotide and a LIPOFECTIN™ concentration of 2.5 or 3 μg/mL per 100 nM oligonucleotide. This transfection mixture was incubated at room temperature for approximately 0.5 hours. For cells grown in 96-well plates, wells were washed once with 100 μL OPTI-MEM™-1 and then treated with 130 μL of the transfection mixture. Cells grown in 24-well plates or other standard tissue culture plates are treated similarly, using appropriate volumes of medium and oligonucleotide. Cells are treated and data are obtained in duplicate or triplicate. After approximately 4-7 hours of treatment at 37° C., the medium containing the transfection mixture was replaced with fresh culture medium. Cells were harvested 16-24 hours after oligonucleotide treatment.
Quantitation of glucose 6-phosphatase translocase mRNA levels was accomplished by real-time quantitative PCR using the ABI PRISM™ 7600, 7700, or 7900 Sequence Detection System (PE-Applied Biosystems, Foster City, Calif.) according to manufacturer's instructions.
Prior to quantitative PCR analysis, primer-probe sets specific to the target gene being measured were evaluated for their ability to be “multiplexed” with a GAPDH amplification reaction. After isolation the RNA is subjected to sequential reverse transcriptase (RT) reaction and real-time PCR, both of which are performed in the same well. RT and PCR reagents were obtained from Invitrogen Life Technologies (Carlsbad, Calif.). […] The RT reaction was carried out by incubation for 30 minutes at 48° C. Following a 10 minute incubation at 95° C. to activate the PLATINUM® Taq, 40 cycles of a two-step PCR protocol were carried out: 95° C. for 15 seconds (denaturation) followed by 60° C. for 1.5 minutes (annealing/extension).
Gene target quantities obtained by RT, real-time PCR were normalized using either the expression level of GAPDH, a gene whose expression is constant, or by quantifying total RNA using RiboGreen™ (Molecular Probes, Inc. Eugene, Oreg.). GAPDH expression was quantified by RT, real-time PCR, by being run simultaneously with the target, multiplexing, or separately. Total RNA was quantified using RiboGreen™ RNA quantification reagent (Molecular Probes, Inc. Eugene, Oreg.).
A series of oligomeric compounds was designed to target different regions of human glucose-6-phosphatase translocase, using published sequences cited in Table 1. All compounds in Table 4 are chimeric oligonucleotides (“gapmers”) 20 nucleotides in length, composed of a central “gap” region consisting of 10 2′-deoxynucleotides, which is flanked on both sides (5′ and 3′) by five-nucleotide “wings”. The wings are composed of 2′-O-(2-methoxyethyl) nucleotides, also known as 2′-MOE nucleotides. […]

| Sequence | % Inhib |
| --- | --- |
| CGCCAGCTGTAGCTCTGGGC (e[5mC]*eG*e[5mC]*e[5mC]*eA*dG*d[5mC]*dT*dG*dT*dA*dG*d[5mC]*dT*d[5mC]*eT*eG*eG*eG*e[5mC]; antisense) [ISIS 145667] | 54% |
| TGGGCTGCCATGGTAGAAAA (eT*eG*eG*eG*e[5mC]*dT*dG*d[5mC]*d[5mC]*dA*dT*dG*dG*dT*dA*eG*eA*eA*eA*eA; antisense) [ISIS 145652] | 50% |
| GGTTCATTGTGGATGAGCAG (eG*eG*eT*eT*e[5mC]*dA*dT*dT*dG*dT*dG*dG*dA*dT*dG*eA*eG*e[5mC]*eA*eG; antisense) [ISIS 145673] | 47% |
| GGATAAGGAAGAACTGGCCC (eG*eG*eA*eT*eA*dA*dG*dG*dA*dA*dG*dA*dA*d[5mC]*dT*eG*eG*e[5mC]*e[5mC]*e[5mC]; antisense) [ISIS 145686] | 32% |
| ACCCAGAAGGCTGTGCTCCA (eA*e[5mC]*e[5mC]*e[5mC]*eA*dG*dA*dA*dG*dG*d[5mC]*dT*dG*dT*dG*e[5mC]*eT*e[5mC]*e[5mC]*eA; antisense) [ISIS 145702] | 74% |
| AGGAAGAACTGGCCCCAGTC (eA*eG*eG*eA*eA*dG*dA*dA*d[5mC]*dT*dG*dG*d[5mC]*d[5mC]*d[5mC]*e[5mC]*eA*eG*eT*e[5mC]; antisense) [ISIS 145685] | 71% |
| TTGGCAATGGTGCTGAAGGG (eT*eT*eG*eG*e[5mC]*dA*dA*dT*dG*dG*dT*dG*d[5mC]*dT*dG*eA*eA*eG*eG*eG; antisense) [ISIS 145700] | 24% |
| GGCATGACAAAGGAGAAGGT (eG*eG*e[5mC]*eA*eT*dG*dA*d[5mC]*dA*dA*dA*dG*dG*dA*dG*eA*eA*eG*eG*eT; antisense) [ISIS 145657] | 43% |
| GCCCACCAAGTGCCAAACTG (eG*e[5mC]*e[5mC]*e[5mC]*eA*d[5mC]*d[5mC]*dA*dA*dG*dT*dG*d[5mC]*d[5mC]*dA*eA*eA*e[5mC]*eT*eG; antisense) [ISIS 145662] | 52% |
| GAAACCAAATACAGCTCCCA (eG*eA*eA*eA*e[5mC]*d[5mC]*dA*dA*dA*dT*dA*d[5mC]*dA*dG*d[5mC]*eT*e[5mC]*e[5mC]*e[5mC]*eA; antisense) [ISIS 359539] | 38% |
| CAGGTTCATGCTGGTTGACA (e[5mC]*eA*eG*eG*eT*dT*d[5mC]*dA*dT*dG*d[5mC]*dT*dG*dG*dT*eT*eG*eA*e[5mC]*eA; antisense) [ISIS 145664] | 66% |
| CAAGGAGCCCTTCTTGCCCT (e[5mC]*eA*eA*eG*eG*dA*dG*d[5mC]*d[5mC]*d[5mC]*dT*dT*d[5mC]*dT*dT*eG*e[5mC]*e[5mC]*e[5mC]*eT; antisense) [ISIS 359524] | 56% |
| CGAGGAGAAACCAAATACAG (e[5mC]*eG*eA*eG*eG*dA*dG*dA*dA*dA*d[5mC]*d[5mC]*dA*dA*dA*eT*eA*e[5mC]*eA*eG; antisense) [ISIS 359541] | 41% |
| CTGGTTGACAGGATGGCCCA (e[5mC]*eT*eG*eG*eT*dT*dG*dA*d[5mC]*dA*dG*dG*dA*dT*dG*eG*e[5mC]*e[5mC]*e[5mC]*eA; antisense) [ISIS 359511] | 55% |
| CCAACCAGGAGCAGCCCAGA (e[5mC]*e[5mC]*eA*eA*e[5mC]*d[5mC]*dA*dG*dG*dA*dG*d[5mC]*dA*dG*d[5mC]*e[5mC]*e[5mC]*eA*eG*eA; antisense) [ISIS 359507] | 49% |
| GGAGACAACCACACACAGTG (eG*eG*eA*eG*eA*d[5mC]*dA*dA*d[5mC]*d[5mC]*dA*d[5mC]*dA*d[5mC]*dA*e[5mC]*eA*eG*eT*eG; antisense) [ISIS 145671] | 39% |
| CCATACGAGGAGAAACCAAA (e[5mC]*e[5mC]*eA*eT*eA*d[5mC]*dG*dA*dG*dG*dA*dG*dA*dA*dA*e[5mC]*e[5mC]*eA*eA*eA; antisense) [ISIS 359542] | 46% |
| ACCACACACAGTGCCCCAGA (eA*e[5mC]*e[5mC]*eA*e[5mC]*dA*d[5mC]*dA*d[5mC]*dA*dG*dT*dG*d[5mC]*d[5mC]*e[5mC]*e[5mC]*eA*eG*eA; antisense) [ISIS 145670] | 42% |
| CTGCGCCAGCTGTAGCTCTG (e[5mC]*eT*eG*e[5mC]*eG*d[5mC]*d[5mC]*dA*dG*d[5mC]*dT*dG*dT*dA*dG*e[5mC]*eT*e[5mC]*eT*eG; antisense) [ISIS 145668] | 47% |
| TCCCAATACCAGGATCCAGA (eT*e[5mC]*e[5mC]*e[5mC]*eA*dA*dT*dA*d[5mC]*d[5mC]*dA*dG*dG*dA*dT*e[5mC]*e[5mC]*eA*eG*eA; antisense) [ISIS 359536] | 55% |
| TGTAGTGCTTGGCAATGGTG (eT*eG*eT*eA*eG*dT*dG*d[5mC]*dT*dT*dG*dG*d[5mC]*dA*dA*eT*eG*eG*eT*eG; antisense) [ISIS 359544] | 7% |
| TACCAGGATCCAGAGCTTGG (eT*eA*e[5mC]*e[5mC]*eA*dG*dG*dA*dT*d[5mC]*d[5mC]*dA*dG*dA*dG*e[5mC]*eT*eT*eG*eG; antisense) [ISIS 359535] | 58% |
| GCCACCCAGAAGGCTGTGCT (eG*e[5mC]*e[5mC]*eA*e[5mC]*d[5mC]*d[5mC]*dA*dG*dA*dA*dG*dG*d[5mC]*dT*eG*eT*eG*e[5mC]*eT; antisense) [ISIS 359545] | 65% |

test system: mouse glucose-6-phosphatase translocase mRNA; test: Antisense inhibition of mouse glucose-6-phosphatase translocase mRNA in primary mouse hepatocytes, 150 nM, LIPOFECTIN (Table 22); type: cell-based; conditions: real-time PCR
Outline: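 Primary CD-1 mouse hepatocytes at 65-75% confluency transfected ~4-7 h at 37° C with 150 nM 5-10-5 2′-MOE gapmer phosphorothioate oligonucleotides plus LIPOFECTIN (2.5 or 3 μg/mL per 100 nM). Harvested 16-24 h post-treatment; mRNA by real-time RT-PCR, normalized to GAPDH or RiboGreen total RNA, expressed as percent inhibition.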

| Sequence | % Inhib of mouse glucose-6-phosphatase translocase mRNA levels |
| --- | --- |
| CGCCAGCTGTAGCTCTGGGC (e[5mC]*eG*e[5mC]*e[5mC]*eA*dG*d[5mC]*dT*dG*dT*dA*dG*d[5mC]*dT*d[5mC]*eT*eG*eG*eG*e[5mC]; antisense) [ISIS 145667] | 49% |
| TGGGCTGCCATGGTAGAAAA (eT*eG*eG*eG*e[5mC]*dT*dG*d[5mC]*d[5mC]*dA*dT*dG*dG*dT*dA*eG*eA*eA*eA*eA; antisense) [ISIS 145652] | 36% |
| GGTTCATTGTGGATGAGCAG (eG*eG*eT*eT*e[5mC]*dA*dT*dT*dG*dT*dG*dG*dA*dT*dG*eA*eG*e[5mC]*eA*eG; antisense) [ISIS 145673] | 4% |
| GGATAAGGAAGAACTGGCCC (eG*eG*eA*eT*eA*dA*dG*dG*dA*dA*dG*dA*dA*d[5mC]*dT*eG*eG*e[5mC]*e[5mC]*e[5mC]; antisense) [ISIS 145686] | 26% |
| ACCCAGAAGGCTGTGCTCCA (eA*e[5mC]*e[5mC]*e[5mC]*eA*dG*dA*dA*dG*dG*d[5mC]*dT*dG*dT*dG*e[5mC]*eT*e[5mC]*e[5mC]*eA; antisense) [ISIS 145702] | 45% |
| AGGAAGAACTGGCCCCAGTC (eA*eG*eG*eA*eA*dG*dA*dA*d[5mC]*dT*dG*dG*d[5mC]*d[5mC]*d[5mC]*e[5mC]*eA*eG*eT*e[5mC]; antisense) [ISIS 145685] | 43% |
| TTGGCAATGGTGCTGAAGGG (eT*eT*eG*eG*e[5mC]*dA*dA*dT*dG*dG*dT*dG*d[5mC]*dT*dG*eA*eA*eG*eG*eG; antisense) [ISIS 145700] | 1% |
| GGCATGACAAAGGAGAAGGT (eG*eG*e[5mC]*eA*eT*dG*dA*d[5mC]*dA*dA*dA*dG*dG*dA*dG*eA*eA*eG*eG*eT; antisense) [ISIS 145657] | 45% |
| GCCCACCAAGTGCCAAACTG (eG*e[5mC]*e[5mC]*e[5mC]*eA*d[5mC]*d[5mC]*dA*dA*dG*dT*dG*d[5mC]*d[5mC]*dA*eA*eA*e[5mC]*eT*eG; antisense) [ISIS 145662] | 19% |
| CAGGTTCATGCTGGTTGACA (e[5mC]*eA*eG*eG*eT*dT*d[5mC]*dA*dT*dG*d[5mC]*dT*dG*dG*dT*eT*eG*eA*e[5mC]*eA; antisense) [ISIS 145664] | 50% |
| GGAGACAACCACACACAGTG (eG*eG*eA*eG*eA*d[5mC]*dA*dA*d[5mC]*d[5mC]*dA*d[5mC]*dA*d[5mC]*dA*e[5mC]*eA*eG*eT*eG; antisense) [ISIS 145671] | 25% |
| ACCACACACAGTGCCCCAGA (eA*e[5mC]*e[5mC]*eA*e[5mC]*dA*d[5mC]*dA*d[5mC]*dA*dG*dT*dG*d[5mC]*d[5mC]*e[5mC]*e[5mC]*eA*eG*eA; antisense) [ISIS 145670] | 45% |
| CTGCGCCAGCTGTAGCTCTG (e[5mC]*eT*eG*e[5mC]*eG*d[5mC]*d[5mC]*dA*dG*d[5mC]*dT*dG*dT*dA*dG*e[5mC]*eT*e[5mC]*eT*eG; antisense) [ISIS 145668] | 39% |
